Results from ChEMBL document CHEMBL1157715, “Probes for narcotic receptor mediated phenomena. 40. N-substituted cis-4a-ethyl-1,2,3,4,4a,9a-hexahydrobenzofuro[2,3-c]pyridin-8-ols” (Bioorg Med Chem, 2010).

Key:
Type in all cases: cell-based
[1] = biological target: Delta-type opioid receptor (Homo sapiens, UniProt P41143); assay: Displacement of [3H]DADLE from delta opioid receptor expressed in CHO cells
Mu-type opioid receptor = Mu-type opioid receptor (Homo sapiens, UniProt P35372); assay: Displacement of [3H]DAMGO from mu opioid receptor expressed in CHO cells
Chain of Mu-type opioid receptor (P35372 whole entry): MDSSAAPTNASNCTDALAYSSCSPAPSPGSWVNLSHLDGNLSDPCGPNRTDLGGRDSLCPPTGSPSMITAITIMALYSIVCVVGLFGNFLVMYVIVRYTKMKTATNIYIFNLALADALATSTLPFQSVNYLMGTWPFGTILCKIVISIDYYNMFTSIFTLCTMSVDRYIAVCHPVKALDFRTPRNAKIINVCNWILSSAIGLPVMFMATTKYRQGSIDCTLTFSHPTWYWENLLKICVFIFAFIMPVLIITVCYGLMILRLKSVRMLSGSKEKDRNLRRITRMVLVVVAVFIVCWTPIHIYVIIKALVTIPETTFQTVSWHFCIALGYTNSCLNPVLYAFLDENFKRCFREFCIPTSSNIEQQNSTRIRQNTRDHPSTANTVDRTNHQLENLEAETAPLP

[2] = biological target: Kappa-type opioid receptor (Homo sapiens, UniProt P41145); assay: Displacement of [3H]U69593 from kappa opioid receptor expressed in CHO cells
Chain of Kappa-type opioid receptor (P41145 whole entry): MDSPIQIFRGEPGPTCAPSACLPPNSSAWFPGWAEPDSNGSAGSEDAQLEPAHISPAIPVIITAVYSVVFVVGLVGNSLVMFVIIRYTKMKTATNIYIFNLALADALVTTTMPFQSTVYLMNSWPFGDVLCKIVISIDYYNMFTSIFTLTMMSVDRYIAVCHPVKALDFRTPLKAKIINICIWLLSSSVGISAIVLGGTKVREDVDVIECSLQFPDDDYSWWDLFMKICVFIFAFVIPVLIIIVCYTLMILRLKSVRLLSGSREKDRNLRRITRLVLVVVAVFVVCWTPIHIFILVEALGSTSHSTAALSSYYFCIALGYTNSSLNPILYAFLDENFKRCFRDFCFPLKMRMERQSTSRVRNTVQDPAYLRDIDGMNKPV

Chain of Delta-type opioid receptor (P41143 whole entry): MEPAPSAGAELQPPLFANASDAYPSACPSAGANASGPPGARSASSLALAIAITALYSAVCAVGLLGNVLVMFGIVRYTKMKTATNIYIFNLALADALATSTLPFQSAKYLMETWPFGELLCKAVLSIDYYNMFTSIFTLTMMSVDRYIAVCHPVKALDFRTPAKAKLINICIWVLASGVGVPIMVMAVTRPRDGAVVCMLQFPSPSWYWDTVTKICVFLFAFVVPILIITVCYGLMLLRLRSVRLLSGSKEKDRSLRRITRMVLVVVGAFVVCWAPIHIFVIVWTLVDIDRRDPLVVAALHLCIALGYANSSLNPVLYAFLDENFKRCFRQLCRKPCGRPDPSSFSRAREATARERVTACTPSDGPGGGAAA

CC[C@@]12CCN(CCc3ccc([N+](=O)[O-])cc3)C[C@@H]1Oc1c(O)cccc12 (racemic)
Ki [1]: 2260 nM | Ki (Mu-type opioid receptor): 670 nM | Ki [2]: 720 nM

CC[C@@]12CCN(CC3CC3)C[C@@H]1Oc1c(O)cccc12 (racemic)
Ki [1]: 6150 nM | Ki (Mu-type opioid receptor): 4670 nM | Ki [2]: 10000 nM

CC[C@@]12CCN(CCc3ccc(F)cc3)C[C@@H]1Oc1c(O)cccc12 (racemic)
Ki [1]: > 4500 nM | Ki (Mu-type opioid receptor): 354 nM | Ki [2]: 935 nM

Oc1ccc2c(c1)C1CCN(CC3CC3)CC1O2 (stereo unspecified)
Ki (Mu-type opioid receptor): 4 nM

CN1CC[C@@]2(CCc3ccccc3)c3cccc(O)c3O[C@H]2C1 (racemic)
Ki [1]: > 4300 nM | Ki (Mu-type opioid receptor): 740 nM | Ki [2]: 2880 nM

CC[C@@]12CCN(C)C[C@@H]1Oc1c(O)cccc12 (racemic)
Ki [1]: 7480 nM | Ki (Mu-type opioid receptor): 795 nM | Ki [2]: > 10000 nM

CC[C@@]12CCN(CCc3ccccc3)C[C@@H]1Oc1ccc(O)cc12
Ki [1]: 75 nM | Ki (Mu-type opioid receptor): 0.7 nM | Ki [2]: 88 nM

Oc1ccc2c(c1)C1CCN(CCc3ccccc3)CC1O2 (stereo unspecified)
Ki (Mu-type opioid receptor): 0.9 nM

CC[C@@]12CCN(Cc3ccc(F)cc3)C[C@@H]1Oc1c(O)cccc12 (racemic)
Ki [1]: > 4500 nM | Ki (Mu-type opioid receptor): > 2700 nM | Ki [2]: 3380 nM

CC[C@@]12CCN(CCc3ccccc3)C[C@@H]1Oc1c(O)cccc12 (racemic)
Ki [1]: 7210 nM | Ki (Mu-type opioid receptor): 1630 nM | Ki [2]: 2220 nM
